Legend:
[1] = system: SOD1^G93A-transfected Neuro2a cells; assay: LDH-Glo cytotoxicity assay in SOD1G93A-transfected Neuro2a cells; type: cell-based; conditions: 10 µM
From the text: Having observed a marked improvement of viability in SOD1^G93A-transfected Neuro2a cells with VPS35 gain of function, we investigated the effect of VPS35 loss of function. We transfected Neuro2a cells with RNAi plasmids encoding a siRNA duplex for VPS35, to knockdown VPS35 and disrupt the retromer assembly. […] By including Sh56 plasmids in the transfection mix, we worsened this phenotype (Fig. 3d). […] We next assayed cytotoxicity by measuring lactate dehydrogenase (LDH) release with a LDH-Glo™ cytotoxicity assay. Cells were treated with plasmids encoding SOD1^G93A and the Sh56-RNAi sequence with or without compound 2a, while supernatants were used to measure LDH contents. Overexpression of SOD1^G93A increased LDH release by Neuro2aA cells, when compared with control cells (Fig. 3e).
LDH cytotoxicity was run on 96-well plates using LDH-Glo™ Cytotoxicity Assay (Promega). Briefly, Neuro2a cells were transfected with plasmids encoding pCMV-LacZ; pcDNA3.1(+)SOD1G93A[77] with or without VPS35 short interfering plasmids (Sh56) or compound 2a (10 µM). […] In each experiment we calculated %cytotoxicity=Exp.LDHrelease−mediumbackground/MaxLDHreleasecontrol−mediumbackground , and we run parallel positive controls treating cells with 200 µM H2O2. […]

SOD1^G93A aggregates = assay: Treatment of G93A mice from day 83 to day 103: motor performance, SOD1 aggregates (blue-native PAGE); type: in vivo; conditions: 10 mg/kg daily
From the text: SOD1 mutations increase its propensity to aggregate in cells. We checked whether compound 2a could reduce the accumulation of SOD1^G93A aggregates in vivo. Starting at postnatal day 83, we injected G93A mice and WT littermates daily with compound 2a. We scored motor performances in vehicle- and compound 2a-treated G93A mice until day 103. […] We resolved SC protein extracts by blue-native polyacrylamide gel electrophoresis, and probing them with anti-SOD1 antibodies we observed high molecular weight smears in G93A mice that were absent in WT litters. The intensity of such high MW entities was lowered in G93A mice treated with compound 2a (Supplementary Fig. 13b, c).
G93A mice and their WT litters were injected daily with vehicle or compound 2a (10 mg/kg, from day 83 to day 103). […] We incubated 250 µL of each extract with 100 mM Iodoacetamide (Sigma–Aldrich). […]
n=4 independent mice/group, data are collected from 1 experiment). […] Dividing black linesmark lanes cropped from the same filter;c, quantifications of the mutant forms of the SOD1 from mice treated with sham or with compound 2a (G93A-v: n=6 independent mice, G93A-2a: n=6 independent mice, data are derived from 2 independent experiments). […]

VPS35 = VPS35 (Mus musculus, UniProt Q9EQH3+Q9QZ88); assay: Western blot for VPS35 in spinal cord extracts of treated C57BL6J mice; type: in vivo; set-up: from tissue; host or cells: mouse (lumbar) spinal cord, motor neurons; conditions: 10 mg/Kg intraperitoneally daily, 1 week
Protocol: Compounds 2a, 4a, and standard R55/1 (10 mg/Kg) were intraperitoneally injected in C57BL6J mice daily. After 1 week, mice were sacrificed, saline perfused to avoid CNS contamination by compounds in blood circulation, and SC protein extracts were assayed by WB. […] Therefore, phenyl-1,3-bis-guanylhydrazone 2a was selected as an early lead.

SMILES: NC(N)=N/N=C/c1cccc(/C=N/N=C(N)N)c1 [compound 2a, phenyl-1,3-bis-guanylhydrazone]
- LDH release ([1]; Neuro2a transfected with SOD1G93A and Sh56 plasmids): high LDH release was observed
- LDH release ([1]; SOD1G93A-transfected Neuro2a, 48 h): significantly reduced LDH release
- motor deficits (latency to fall) (SOD1^G93A aggregates): general attenuation of motor deficits
- intensity of high MW SOD1 entities (blue-native PAGE) (SOD1^G93A aggregates; SC extracts): lowered
- VPS35 levels in SC extracts (VPS35): significantly increased

Reference: paper PMC7395176, “Retromer stabilization results in neuroprotection in a model of Amyotrophic Lateral Sclerosis” (Nature Communications, 2020)
